Laboratory results: article PMC4232510, “Identification of Functionally Important Residues of the Rat P2X4 Receptor by Alanine Scanning Mutagenesis of the Dorsal Fin and Left Flipper Domains” (PLoS ONE, 2014)
Positions count from the first letter of the chain named.

Columns and labels:
Experiment in all cases: whole-cell patch clamp, HEK293T cells expressing mutant
Assay type in all cases: cell-based
rP2X4R T210A mutant = target: T1, rP2X4R T210A mutant (Rattus norvegicus, UniProt P51577, T210A); settings: for relative responsiveness: 100 µM agonist 2 s, relative to ATP (100%)
T1 construct: expressed in transfected cells; host or cells: HEK293T
T1 sequence (P51577 1-388 T210A): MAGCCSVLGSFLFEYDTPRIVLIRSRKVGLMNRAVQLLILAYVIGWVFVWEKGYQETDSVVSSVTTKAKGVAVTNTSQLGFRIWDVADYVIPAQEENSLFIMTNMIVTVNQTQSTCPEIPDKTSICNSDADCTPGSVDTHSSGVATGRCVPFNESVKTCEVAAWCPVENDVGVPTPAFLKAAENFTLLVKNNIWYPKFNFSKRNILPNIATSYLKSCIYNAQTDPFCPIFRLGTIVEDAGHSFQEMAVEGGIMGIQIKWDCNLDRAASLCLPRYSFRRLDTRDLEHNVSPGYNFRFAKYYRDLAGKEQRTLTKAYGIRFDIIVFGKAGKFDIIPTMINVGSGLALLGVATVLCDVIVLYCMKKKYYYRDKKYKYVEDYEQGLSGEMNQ

rP2X4R R282A mutant = target: T2, rP2X4R R282A mutant (Rattus norvegicus, UniProt P51577, R282A); settings: for relative responsiveness: 100 µM agonist 2 s, relative to ATP (100%)
T2 construct: expressed in transfected cells; host or cells: HEK293T
T2 sequence (P51577 1-388 R282A): T1 sequence (P51577 1-388 T210A) with A210T, R282A

rP2X4R D283A mutant = target: T3, rP2X4R D283A mutant (Rattus norvegicus, UniProt P51577, D283A)
T3 construct: expressed in transfected cells; host or cells: HEK293T
T3 sequence (P51577 1-388 D283A): T1 sequence (P51577 1-388 T210A) with A210T, D283A

[1] = 100 µM ATP 60 s, biexponential fit
[2] = contribution of τdes2, 100 µM ATP 60 s
[3] = decay after removal of 1 or 3 µM ATP, 3 µM IVM
[4] = naïve receptors, 2–5 s application
[5] = 3 µM IVM 4-6 min vs IVM-untreated

**Q.** How did the relative responsiveness (rP2X4R T210A mutant) turn out when “2′(3′-O-(4-Benzoylbenzoyl)adenosine 5′-triphosphate [BzATP]” was run?
**A.** 23.9±3.2 %

**Q.** And the relative responsiveness (rP2X4R R282A mutant)?
**A.** 25.7±3.7%

**Q.** What does the source list for CSc1nc(N)c2ncn([C@@H]3O[C@H](COP(=O)(O)OP(=O)(O)OP(=O)(O)O)[C@@H](O)[C@H]3O)c2n1 [2-MeS-ATP, 2-(Methylthio)adenosine 5′-triphosphate]?
**A.** relative responsiveness (rP2X4R T210A mutant): 59.2±6.9%; relative responsiveness (rP2X4R R282A mutant): 55.1±12.9%

**Q.** For Nc1ncnc2c1ncn2[C@@H]1O[C@H](COP(=O)(O)OP(=O)(O)OP(=O)(O)O)[C@@H](O)[C@H]1O [ATP], which τdes1 (rP2X4R T210A mutant; [1]) is on record?
**A.** 2.0 ± 0.3 s

**Q.** What about the τdes2 (rP2X4R T210A mutant; [1]) of the same molecule?
**A.** 14.4 ± 2.5 s

**Q.** And the Imax (rP2X4R T210A mutant; 100–1000 µM ATP)?
**A.** 1.9 ± 0.2 nA

**Q.** And the “Imax+IVM” value (rP2X4R T210A mutant; ATP after 3 µM IVM 4-6 min)?
**A.** 3.5 ± 0.6 nA

**Q.** What about the “A2 /(A1+A2)” value (rP2X4R T210A mutant; [2]) of the same molecule?
**A.** 52 ± 8%

**Q.** What about the “τoff +IVM” value (rP2X4R T210A mutant; [3]) of the same molecule?
**A.** 5.5 ± 0.4 s

**Q.** And the EC50 (rP2X4R T210A mutant; [4])?
**A.** 26 ± 2.6 µM

**Q.** And the τdes (rP2X4R T210A mutant; weighted, 100 µM ATP 60 s)?
**A.** 8.9 ± 2.1 s

**Q.** And the “EC50 rightward shift compared to WT” value (rP2X4R R282A mutant)?
**A.** approximately 10 fold

**Q.** What about the τdes1 (rP2X4R R282A mutant; [1]) of the same molecule?
**A.** 4.0 ± 0.3 s

**Q.** What about the τdes2 (rP2X4R R282A mutant; [1]) of the same molecule?
**A.** 14.7 ± 2.0 s

**Q.** What about the Imax (rP2X4R R282A mutant; 100–1000 µM ATP) of the same molecule?
**A.** 0.7 ± 0.1 nA

**Q.** And the “Imax+IVM” value (rP2X4R R282A mutant; ATP after 3 µM IVM 4-6 min)?
**A.** 4.5 ± 0.5 nA

**Q.** What about the “A2 /(A1+A2)” value (rP2X4R R282A mutant; [2]) of the same molecule?
**A.** 64 ±14%

**Q.** And the “τoff +IVM” value (rP2X4R R282A mutant; [3])?
**A.** 7.0 ± 0.6 s

**Q.** And the EC50 (rP2X4R R282A mutant; [4])?
**A.** 23 ± 8 µM

**Q.** What about the τdes (rP2X4R R282A mutant; weighted, 100 µM ATP 60 s) of the same molecule?
**A.** 14 ± 1.0 s

**Q.** What about the τdes1 (rP2X4R D283A mutant; [1]) of the same molecule?
**A.** 2.2 ± 0.6 s

**Q.** And the τdes2 (rP2X4R D283A mutant; [1])?
**A.** 17.1 ± 5.8 s

**Q.** What about the Imax (rP2X4R D283A mutant; 100–1000 µM ATP) of the same molecule?
**A.** 2.2 ± 0.3 nA

**Q.** And the “Imax+IVM” value (rP2X4R D283A mutant; ATP after 3 µM IVM 4-6 min)?
**A.** 3.1 ± 0.3 nA

**Q.** And the “A2 /(A1+A2)” value (rP2X4R D283A mutant; [2])?
**A.** 59 ± 10%

**Q.** What about the “τoff +IVM” value (rP2X4R D283A mutant; [3]) of the same molecule?
**A.** 16 ± 1.7 s

**Q.** What about the EC50 (rP2X4R D283A mutant; [4]) of the same molecule?
**A.** 7.3 ± 3.4 µM

**Q.** And the τdes (rP2X4R D283A mutant; weighted, 100 µM ATP 60 s)?
**A.** 9.1 ± 1.5 s

**Q.** What does the source list for Nc1ncnc2c1ncn2[C@@H]1O[C@H](CO[P@](=O)(O)O[P@](=O)(O)O[P@@](=O)(O)S)[C@@H](O)[C@H]1O [ATPγS, Adenosine 5′-(γ-thio)triphosphate]?
**A.** relative responsiveness (rP2X4R T210A mutant): 34.2±4.1 %; relative responsiveness (rP2X4R R282A mutant): 45.5±5.2%

**Q.** Which “Fold incr. Imax” value (rP2X4R T210A mutant; [5]) does the source give for CC[C@H](C)[C@H]1O[C@]2(CC[C@@H]1C)C[C@@H]1C[C@@H](C/C=C(\C)[C@@H](O[C@H]3C[C@H](OC)[C@@H](O[C@H]4C[C@H](OC)[C@@H](O)[C@H](C)O4)[C@H](C)O3)[C@@H](C)/C=C/C=C3\CO[C@@H]4[C@H](O)C(C)=C[C@@H](C(=O)O1)[C@]34O)O2 [IVM, ivermectin] here?
**A.** 1.8 ± 0.2 fold

**Q.** And the “Fold incr. Imax” value (rP2X4R D283A mutant; [5])?
**A.** 1.4 ± 0.1 fold

**Q.** How did the relative responsiveness (rP2X4R T210A mutant) turn out when Nc1ncnc2c1ncn2C1OC(COP(=O)(O)CP(=O)(O)OP(=O)(O)O)C(O)C1O (stereo not drawn) [α,β-meATP, α,β-methyleneadenosine 5′-triphosphate] was run?
**A.** 8.8±2.3 %

**Q.** And the relative responsiveness (rP2X4R R282A mutant)?
**A.** 27.3±7.9%
